For two compounds, CFU and Stability results are on record in ChEMBL document CHEMBL1145489, “Isoniazid induces its own resistance in nonreplicating Mycobacterium tuberculosis” (Antimicrob Agents Chemother, 2007).

Molecules are shown by their SMILES.

In series [1] the test system is Mycobacterium tuberculosis. In words: Antimicrobial activity against Mycobacterium tuberculosis H37Rv at 2 ug/ml after 2 weeks by […] method. It is filed as functional.
Series [2] deals with Mycobacterium tuberculosis. In words: Antimicrobial activity against Mycobacterium tuberculosis H37Rv at 2 ug/ml after 1 week by […] method. It is filed as functional.
In series [3] the test system is Mycobacterium tuberculosis. In words: Antimicrobial activity against Mycobacterium tuberculosis H37Rv at 2 ug/ml after 4 weeks by […] method. It is filed as functional.
In series [4] the test system is Mycobacterium tuberculosis. The series is described as follows: Antimicrobial activity against Mycobacterium tuberculosis H37Rv at 2 ug/ml after 3 weeks at by […] method. The format is functional.
Series [5] has as its system Mycobacterium tuberculosis. The series is described as follows: Antimicrobial activity against Mycobacterium tuberculosis TB7 isolate at 0.4 ug/ml after 4 weeks. The format is functional.
Series [6] has as its system Mycobacterium tuberculosis. In words: Antimicrobial activity against Mycobacterium tuberculosis H37Rv at 0.4 ug/ml after 4 weeks by […] method. It is filed as functional.
Series [7] has as its system Mycobacterium tuberculosis. In words: Antimicrobial activity against Mycobacterium tuberculosis TB20 isolate at 0.1 ug/ml after 4 weeks. The format is functional.
The test system of series [8] is Mycobacterium tuberculosis. The series is described as follows: Antimicrobial activity against Mycobacterium tuberculosis H37Rv at 0.4 ug/ml after 3 weeks by […] method. It is filed as functional.
Series [9] deals with Mycobacterium tuberculosis. The series is described as follows: Antimicrobial activity against Mycobacterium tuberculosis TB19 isolate at 0.4 ug/ml after 4 weeks. The format is functional.
Series [10] concerns Mycobacterium tuberculosis. In words: Antimicrobial activity against Mycobacterium tuberculosis H37Rv at 0.1 ug/ml after 4 weeks by […] method. It is filed as functional.
For series [11], the system named is Mycobacterium tuberculosis. In words: Antimicrobial activity against Mycobacterium tuberculosis TB19 isolate at 0.4 ug/ml after 1 week. The format is functional.
Series [12] concerns Mycobacterium tuberculosis. The series is described as follows: Antimicrobial activity against Mycobacterium tuberculosis TB20 isolate at 0.4 ug/ml after 1 week. It is filed as functional.
Series [13] relates to Mycobacterium tuberculosis. The series is described as follows: Antimicrobial activity against Mycobacterium tuberculosis TB19 isolate at 0.4 ug/ml after 2 weeks. It is filed as functional.
The test system of series [14] is Mycobacterium tuberculosis. The series is described as follows: Antimicrobial activity against Mycobacterium tuberculosis TB19 isolate at 0.1 ug/ml after 4 weeks. It is filed as functional.
The subject of series [15] is Mycobacterium tuberculosis. In words: Antimicrobial activity against Mycobacterium tuberculosis H37Rv at 0.4 ug/ml after 2 weeks by […] method. The format is functional.
Series [16] concerns Mycobacterium tuberculosis. The series is described as follows: Antimicrobial activity against Mycobacterium tuberculosis TB7 isolate at 0.1 ug/ml after 3 weeks. It is filed as functional.
Series [17] has as its system Mycobacterium tuberculosis. In words: Antimicrobial activity against Mycobacterium tuberculosis TB19 isolate at 0.1 ug/ml after 3 weeks. The format is functional.
The test system of series [18] is Mycobacterium tuberculosis. The series is described as follows: Antimicrobial activity against Mycobacterium tuberculosis TB20 isolate at 0.4 ug/ml after 2 weeks. It is filed as functional.
The subject of series [19] is Mycobacterium tuberculosis. In words: Antimicrobial activity against Mycobacterium tuberculosis H37Rv at 0.4 ug/ml after 1 week by […] method. It is filed as functional.
In series [20] the test system is Mycobacterium tuberculosis. The series is described as follows: Antimicrobial activity against Mycobacterium tuberculosis TB20 isolate at 0.4 ug/ml after 4 weeks. It is filed as functional.
The test system of series [21] is Mycobacterium tuberculosis. The series is described as follows: Antimicrobial activity against Mycobacterium tuberculosis TB20 isolate at 0.1 ug/ml after 3 weeks. The format is functional.
The subject of series [22] is Mycobacterium tuberculosis. The series is described as follows: Antimicrobial activity against Mycobacterium tuberculosis H37Rv at 0.1 ug/ml after 3 weeks by […] method. The format is functional.
In series [23] the test system is Mycobacterium tuberculosis. The series is described as follows: Antimicrobial activity against Mycobacterium tuberculosis H37Rv at 0.1 ug/ml after 1 week by […] method. The format is functional.
The test system of series [24] is Mycobacterium tuberculosis. The series is described as follows: Antimicrobial activity against Mycobacterium tuberculosis TB19 isolate at 0.1 ug/ml after 2 weeks. It is filed as functional.
Series [25] has as its system Mycobacterium tuberculosis. In words: Antimicrobial activity against Mycobacterium tuberculosis TB20 isolate at 0.4 ug/ml after 3 weeks. The format is functional.
The subject of series [26] is Mycobacterium tuberculosis. In words: Antimicrobial activity against Mycobacterium tuberculosis TB19 isolate at 0.4 ug/ml after 3 weeks. The format is functional.
Series [27] is described as follows: Stability in BACTEC medium at 37 degC upto 4 weeks. To be noted: 672 h. The format is physicochemical.
In series [28] the test system is Mycobacterium tuberculosis. The series is described as follows: Antimicrobial activity against Mycobacterium tuberculosis TB7 isolate at 0.4 ug/ml after 3 weeks. The format is functional.
Series [29] relates to Mycobacterium tuberculosis. In words: Antimicrobial activity against Mycobacterium tuberculosis TB20 isolate at 0.1 ug/ml after 2 weeks. The format is functional.
Series [30] concerns Mycobacterium tuberculosis. The series is described as follows: Antimicrobial activity against Mycobacterium tuberculosis TB7 isolate at 0.1 ug/ml after 2 weeks. The format is functional.
Series [31] has as its system Mycobacterium tuberculosis. The series is described as follows: Antimicrobial activity against Mycobacterium tuberculosis TB20 isolate at 0.1 ug/ml after 1 week. The format is functional.
For series [32], the system named is Mycobacterium tuberculosis. In words: Antimicrobial activity against Mycobacterium tuberculosis TB7 isolate at 0.4 ug/ml after 2 weeks. The format is functional.
Series [33] deals with Mycobacterium tuberculosis. In words: Antimicrobial activity against Mycobacterium tuberculosis TB7 isolate at 0.4 ug/ml after 1 week. It is filed as functional.
Series [34] relates to Mycobacterium tuberculosis. The series is described as follows: Antimicrobial activity against Mycobacterium tuberculosis TB7 isolate at 0.1 ug/ml after 4 weeks. The format is functional.
Series [35] concerns Mycobacterium tuberculosis. In words: Antimicrobial activity against Mycobacterium tuberculosis TB19 isolate at 0.1 ug/ml after 1 week. The format is functional.
Series [36] relates to Mycobacterium tuberculosis. The series is described as follows: Antimicrobial activity against Mycobacterium tuberculosis TB7 isolate at 0.1 ug/ml after 1 week. It is filed as functional.
For series [37], the system named is Mycobacterium tuberculosis. In words: Antimicrobial activity against Mycobacterium tuberculosis H37Rv at 0.1 ug/ml after 2 weeks by […] method. The format is functional.

Regarding `CO[C@H]1/C=C/O[C@@]2(C)Oc3c(C)c(O)c4c(O)c(c(/C=N/N5CCN(C)CC5)c(O)c4c3C2=O)NC(=O)/C(C)=C\C=C\[C@H](C)[C@H](O)[C@@H](C)[C@@H](O)[C@@H](C)[C@H](OC(C)=O)[C@@H]1C` [RIFAMPIN], the CFU in series [1], in [2], in [3] and in [4] was 0 mL⁻¹ throughout.

`NNC(=O)c1ccncc1` [ISONIAZID]: the CFU in series [5] is reported as 1.1 10^5/ml; in series [6], 1.32 10^4/ml; in [7] it was 2.5 10^4/ml; in series [8], 1.45 10^4/ml; in series [9], 4.8 10^4/ml; in series [10], 1.22 10^5/ml. Moreover, the CFU in series [11] was 0 mL⁻¹; in series [12], 40 mL⁻¹; in [13] it was 2 10^2/ml; in series [14], 7 10^3/ml; in [15], 3.6 10^3/ml; in series [16] it was 2.5 10^4/ml. Further, the CFU in series [17] is 4.8 10^3/ml; in [18] it was 1.3 10^4/ml; in series [19] it was 55 mL⁻¹; in series [20], 8 10^4/ml; in [21], 1.6 10^4/ml; in series [22], 2.4 10^4/ml. Also, the CFU in [23] is given as 1.2 10^3/ml; in series [24] it was 1.1 10^3/ml; in series [25], 7.5 10^4/ml; in series [26], 3.4 10^4/ml; in [28], 1.2 10^4/ml; in [29], 1.4 10^4/ml. The CFU in series [30] was 7.6 10^3/ml; in series [31], 2.4 10^2/ml; in [32], 5.6 10^2/ml; in series [33], 0 mL⁻¹; in [34], 7.9 10^4/ml; in series [35], 25 mL⁻¹. For the same compound, the CFU in [36] is 1.7 10^5/ml; in [37] it was 3.1 10^3/ml. In series [27], the Stability entry is “Stable”.
